Like-named read-outs stand apart in the source and are kept apart here.
Legend:
Abeta = biological target: T1, Abeta (Homo sapiens, UniProt P05067); test: Radiobinding competition assay using Abeta reference compound on AD insoluble fraction of brain homogenates; format: binding; settings: against [3H]Abeta reference compound
T1 construct: an AD donor with confirmed burden of Tau and Abeta aggregates; from tissue; host or cells: frontal cortex of a human AD donor, Triton/sucrose-insoluble fraction
T1 sequence (P05067 672-713 limits assumed): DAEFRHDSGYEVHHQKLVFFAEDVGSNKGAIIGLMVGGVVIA
Procedure: Approximately 4 g of frozen tissue block from frontal cortex brain region was used from an AD donor with confirmed burden of Tau and Abeta aggregates. The tissue was homogenized in three volumes (1:3 w/v) of high salt buffer (50 mM Tris-HCl pH 7.5, 750 mM NaCl, 5 mM EDTA) supplemented with protease inhibitors (Complete; Roche 11697498001) at 4° C. with a glass Dounce homogenizer. The homogenate was transferred into polycarbonate centrifuge bottles (16×76 mm; Beckman 355603) and centrifuged at 100,000×g (38,000 RPM) in an ultracentrifuge (Beckman, XL100K) for 60 minutes at 4° C. using a pre-cooled 70.1 rotor (Beckman, 342184). Pellets were resuspended in high salt buffer supplemented with 1% Triton X-100 and homogenized at 4° C. with a syringe. The homogenates were centrifuged again at 100,000×g (38,000 RPM, 70.1 rotor) for 60 minutes at 4° C. Pellets were resuspended in high salt buffer supplemented with 1% Triton X-100 and 1 M sucrose and homogenized at 4° C. with a syringe. The homogenates were centrifuged at 100,000×g (38,000 RPM, 70.1 rotor) for 60 minutes at 4° C. The resulting pellets containing insoluble fraction were resuspended in PBS (1:2 w/v relative to starting tissue weight), aliquoted and stored at −80° C. until use.
The reaction was performed in assay buffer (50 mM Tris pH 7.5 in 0.9% NaCl, 0.1% BSA) and incubated for two hours at room temperature (RT). Samples in duplicate were then filtered under vacuum in GF/C filter plates (PerkinElmer) to trap the aggregates with the bound radioligand and washed with 100 μL ice-cold 50 mM Tris pH 7.5. The GF/C filters were then dried and scintillation liquid (UltimateGold, PerkinElmer, 6013151) was added in each well. The filters were analyzed on a Microbeta2 scintillation counter (PerkinElmer). Values for the maximal signal were obtained in the absence of non-radiolabeled compound, while 100% displacement was obtained using 1 μM of non-radiolabeled reference compound. Ki values were calculated by nonlinear regression, using a one site—fit Ki model in Prism V7 (GraphPad).

[1] = biological target: T2, Human brain derived TDP-43 aggregates (Homo sapiens, UniProt Q13148); test: Micro-radiobinding competition assay for binding affinity to TDP-43; settings: for Ki: 0.24 nM to 2 μM vs tritiated reference ligand at 40 nM; for Human brain derived TDP-43 aggregates Mean % competition at 250 nM: non-radiolabeled compound at 250 nM vs tritiated reference ligand at 40 nM; for Human brain derived TDP-43 aggregates Mean % competition at 250 nM / Human brain derived TDP-43 aggregates Mean % competition at 2 μM: FTD sarkosyl-insoluble brain extracts; for Human brain derived TDP-43 aggregates Mean % competition at 2 μM: non-radiolabeled compound at 2 μM vs tritiated reference ligand at 40 nM
T2 construct: Human FTD sarkosyl-insoluble brain extracts were spotted onto microarray slides
T2 sequence (Q13148 261-414 limits assumed): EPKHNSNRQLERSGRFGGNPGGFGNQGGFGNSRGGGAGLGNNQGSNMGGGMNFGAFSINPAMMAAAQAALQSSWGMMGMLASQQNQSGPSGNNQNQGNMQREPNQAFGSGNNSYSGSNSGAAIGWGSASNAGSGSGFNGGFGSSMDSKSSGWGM
Procedure: Human brain extracts were prepared as described in Laferriere et al., 2019, Nature Neurosc. A sample of brain tissue (frontal or temporal cortex) was homogenized at 1:4 (w/v) ratio in the homogenization-solubilization (HS) buffer at 4° C. using tissue homogenizer (Precellys) with CKmix homogenization tubes. The following sequence was used for homogenization: 3 cycles of 30 seconds at 5000 rpm (with 15 seconds pause between each cycle). Homogenized samples were aliquoted and stored at −80° C. in 1.5 mL low protein binding tubes.
Brain homogenates were thawed on ice and resuspended in HS buffer to obtain a final concentration of 2% sarkosyl, 1 unit/μL Benzonase and 1 mM MgCl2. The samples were then incubated at 37° C. under constant shaking at 600 rpm on a thermomixer for 45 minutes (min). The supernatants were collected in a new tube (sarkosyl-soluble fraction, S1). The pellet was resuspended in 1000 μL of myelin floatation buffer and centrifuged at 20,000 g for 60 min at 4° C. The supernatant was carefully removed to remove all the floating lipids. This step was repeated if all the lipids could not be removed in a single step. The pellet was subsequently washed with Phosphate-Buffered Saline (PBS) and centrifuged for 30 min at 20,000 g at 4° C. The final pellet was resuspended in 200 μL PBS and stored at −80° C. (sarkosyl-insoluble fraction). The samples were analyzed by immunoblotting in denaturing conditions.
Human FTD sarkosyl-insoluble brain extracts were spotted onto microarray slides. The slides were incubated with a tritiated reference ligand at 40 nM, and the example compounds (non-radiolabeled) at 2 μM and 250 nM. […] After incubation, slides were washed and scanned by a real-time autoradiography system (BeaQuant, ai4R). Quantification of the signal was performed by using the Beamage image analysis software (ai4R). Non-specific signal was determined with an excess of non-radiolabeled reference compound (2 μM) and specific binding was calculated by subtracting the non-specific signal from the total signal. Competition was calculated as percent, where 0% was defined as the specific binding in the presence of vehicle and 100% as the values obtained in the presence of excess of the non-radiolabeled reference compound. Ki values were calculated in GraphPad Prism8 by applying a nonlinear regression curve fit using a one site, specific binding model. Measurements were performed with at least two technical replicates in the two-concentration competition experiment and with one technical replicate in the experiments including a range of concentrations. For compounds tested in more than one experiment, the mean of the replicates or Ki values in independent experiments is reported.

[2] = cells printed in μM, read-out: Ki on AD brain homogenates
[3] = read-out: Ki (nM) on AD brain homogenates

Row | SMILES | Ki (Abeta; [2]) | Ki [1] | Human brain derived TDP-43 aggregates Mean % competition at 250 nM [1] | Human brain derived TDP-43 aggregates Mean % competition at 2 μM [1] | Ki (Abeta; [3])
1 | Nc1cc(N2CCc3nc(-c4ccc(N5CCC[C@H](F)C5)nc4F)sc3C2=O)ccn1 [Compound 29] | > 1 µM | 43 nM | 45% | 86% | –
2 | N#Cc1c(N)cccc1N1CCc2nc(-c3ccc(N4CC[C@@H](F)C4)nc3F)sc2C1=O [Compound 34] | > 1 µM | 5 nM | 60% | 77% | –
3 | O=C1c2sc(-c3ccc(N4CC[C@H](F)C4)nc3F)nc2CCN1c1ccncn1 [Compound 37] | > 1 µM | 25 nM | 80% | 70% | –
4 | Nc1cc(N2CCc3nc(-c4ccc(N5CC[C@H](F)C5)nc4F)sc3C2=O)ccn1 [Compound 26] | – | 13 nM | 55% | 91% | 0.318 µM
5 | Cn1cc(N2CCc3nc(-c4ccc(N5CC[C@@H](F)C5)nc4F)sc3C2=O)cn1 [Compound 11] | – | – | 73% | 102% | –
6 | O=C1c2sc(-c3ccc(N4CCCCC4)nc3F)nc2CCN1c1ccnc(F)c1 [Compound 23, 2-(2-fluoro-6-(piperidin-1-yl)pyridin-3-yl)-5-(2-fluoropyridin-4-yl)-6,7-dihydrothiazolo[5,4-c]pyridin-4(5H)-one] | > 1 µM | 25 nM | 73% | 104% | –
7 | O=C1c2sc(-c3ccc(N4CC[C@@H](F)C4)nc3F)nc2CCN1c1ccncc1 [Example 7] | > 1 µM | 51 nM | 51% | 73% | –
8 | O=C1c2sc(-c3ccc(N4CCCC4)nc3F)nc2CCN1c1ccncc1 [Compound 14] | – | – | 48% | 34% | –
9 | O=C1c2sc(-c3ccc(N4CC[C@H](F)C4)nc3F)nc2CCN1c1ncccn1 [Compound 16] | > 1 µM | 5 nM | 67% | 96% | –
10 | O=C1c2sc(-c3ccc(N4CC[C@H](F)C4)nc3F)nc2CCN1c1cnsc1 [Compound 25, (S)-2-(2-fluoro-6-(3-fluoropyrrolidin-1-yl)pyridin-3-yl)-5-(isothiazol-4-yl)-6,7-dihydrothiazolo[5,4-c]pyridin-4(5H)-one] | > 1 µM | 48 nM | 78% | 96% | –
11 | O=C1c2sc(-c3ccc(N4CC[C@@H](F)C4)nc3F)nc2CCN1c1cncnc1 [Compound 13] | > 1 µM | – | 57% | 84% | –
12 | O=C1c2sc(-c3ccc(N4CCCC4)nc3F)nc2CCN1c1ccc(F)nc1 [Compound 12] | – | – | 56% | 59% | –
13 | Nc1cc(N2CCc3nc(-c4ccc(N5CCCC5)nc4F)sc3C2=O)ccc1F [Compound 10, 5-(3-amino-4-fluorophenyl)-2-(2-fluoro-6-(pyrrolidin-1-yl)pyridin-3-yl)-6,7-dihydrothiazolo[5,4-c]pyridin-4(5H)-one] | – | 16 nM | 52% | 75% | 0.35 µM
14 | O=C1c2sc(-c3ccc(N4CC[C@@H](F)C4)nc3F)nc2CCN1c1ncccn1 [Compound 15, 2-[2-fluoro-6-[(3R)-3-fluoropyrrolidin-1-yl]-3-pyridyl]-5-pyrimidin-2-yl-6,7-dihydrothiazolo[5,4-c]pyridine-4-one] | > 1 µM | 11 nM | 62% | 86% | –
15 | N#Cc1c(N)cccc1N1CCc2nc(-c3ccc(N4CCC[C@@H](F)C4)nc3F)sc2C1=O [Compound 30] | – | 7 nM | 66% | 93% | –
16 | N#Cc1c(N)cccc1N1CCc2nc(-c3ccc(N4CCC[C@H](F)C4)nc3F)sc2C1=O [Compound 31] | > 1 µM | 4 nM | 62% | 70% | –
17 | O=C1c2sc(-c3ccc(N4CC[C@@H](F)C4)nc3F)nc2CCN1c1cscn1 [Compound 33] | – | 36 nM | 60% | 86% | –
18 | O=C1c2sc(-c3ccc(N4CC[C@H](F)C4)nc3F)nc2CCN1c1ccnnc1 [Compound 36] | – | 7 nM | 66% | 75% | –
19 | N#Cc1c(N)cccc1N1CCc2nc(-c3ccc(N4CC[C@H](F)C4)nc3F)sc2C1=O [Compound 32] | > 1 µM | 4 nM | 65% | 80% | –
20 | Cn1cc(N2CCc3nc(-c4ccc(N5CCCC5)nc4F)sc3C2=O)cn1 [Compound 21] | – | 30 nM | 46% | 85% | –
21 | O=C1c2sc(-c3ccc(N4CCC[C@@H](F)C4)nc3F)nc2CCN1c1cnsc1 [Compound 24, (R)-2-(2-fluoro-6-(3-fluoropiperidin-1-yl)pyridin-3-yl)-5-(isothiazol-4-yl)-6,7-dihydrothiazolo[5,4-c]pyridin-4(5H)-one] | > 1 µM | 65 nM | 61% | 83% | –
22 | O=C1c2sc(-c3ccc(N4CCC[C@H](F)C4)nc3F)nc2CCN1c1ncccn1 [Compound 35] | > 1 µM | 49 nM | 55% | 70% | –
23 | O=C1c2sc(-c3ccc(N4CC[C@@H](F)C4)nc3F)nc2CCN1c1cnsc1 [Compound 22] | – | 54 nM | 68% | 100% | –

— patent publication US20260103474A1, “NOVEL COMPOUNDS FOR THE DIAGNOSIS OF TDP-43 PROTEINOPATHIES” (AC IMMUNE SA, priority 2022, published 2026)
